Results: patent publication US20220265641A1, “SEROTONERGIC AGENT AND 5-HT1A-RECEPTOR ANTAGONIST” (ATLAS PHARMACEUTICALS BV, priority 2019, published 2022)

Key:
[1] = test system: time to first ejaculation of male rats; experiment: Time until first ejaculation in male rats, 5-HT1A-receptor antagonist in conjunction with serotonergic agent (Example 3); assay type: in vivo; details: antagonist in conjunction with Citalopram, Fluoxetine, Ifoxetine, Paroxetine or Zimelidine shortly before sexual activity, relative to the rat's own average without treatment
Experimental: In a study with male rats, 10 different 5-HT1A-receptor antagonists are administered in conjunction with five different serotonergic agents shortly before sexual activity.

[2] = test system: male rat sexual behavior; experiment: Male rat sexual behavior model (sexually trained males, 30-min access to receptive females); assay type: in vivo; details: for behavioral effects on sexual behavior, antagonist alone: separate experiments, not shown
Description: A model of sexual behavior in male rats was developed that is predictive of SSRI-effects on human male sexual behavior (Bijlsma et al. 2014; Olivier et al. 2006; 2017). In this male rat sexual behavior model, SSRIs inhibit sexual behavior, but only upon chronic administration thereby mimicking and modeling the SSRI effects in human males.
Male rats were sexually trained till they obtained a stable sexual performance (on average 2 ejaculations per 30-min, the standard testing duration). Animals were injected intraperitoneally 30-min before testing after which males had 30 min access to the females that were behaviorally sexually receptive. A trained researcher scored the sexual behavior of the males according to published and accepted methods (Chan et al. 2010).

[3] = biological target: T1, 5-HT1A-receptor (Homo sapiens, UniProt P08908); details: healthy human volunteers, cited from earlier work
T1 construct: host or cells: brain of healthy human volunteers (in vivo PET)
T1 sequence (P08908 1-422): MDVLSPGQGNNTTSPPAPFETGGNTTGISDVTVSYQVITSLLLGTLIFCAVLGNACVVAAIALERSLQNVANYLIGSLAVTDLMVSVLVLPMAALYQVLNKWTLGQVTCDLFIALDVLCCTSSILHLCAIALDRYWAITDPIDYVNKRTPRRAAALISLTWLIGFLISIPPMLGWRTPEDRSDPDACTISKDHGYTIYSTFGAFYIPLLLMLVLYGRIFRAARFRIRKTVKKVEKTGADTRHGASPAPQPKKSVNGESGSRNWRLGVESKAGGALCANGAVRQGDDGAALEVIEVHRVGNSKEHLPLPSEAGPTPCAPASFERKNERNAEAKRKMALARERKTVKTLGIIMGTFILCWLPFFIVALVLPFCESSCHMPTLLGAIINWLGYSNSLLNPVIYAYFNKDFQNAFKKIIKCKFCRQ

[4] = test system: 5-HT1A receptor; details: cited from earlier work

O=C(CCCN1CCC2(CC1)C(=O)NCN2c1ccccc1)c1ccc(F)cc1 [Spiperone]
Potential average increase in time to first ejaculation (%) [1]: 80%

Cc1nc2n(c(=O)c1CCN1CCC(c3noc4cc(F)ccc34)CC1)CCCC2 [Risperidone]
Potential average increase in time to first ejaculation (%) [1]: 102%

c1ccc(C(c2ccccc2)N2CCN(CCCC3(c4ccccc4)OCCO3)CC2)cc1 [Dotarizine]
Potential average increase in time to first ejaculation (%) [1]: 67%

CSc1ccc2c(c1)C(N1CCN(C)CC1)Cc1ccccc1S2 (centres unmarked) [Methiothepin]
Potential average increase in time to first ejaculation (%) [1]: 97%

COc1ccccc1N1CCN(CCN(C(=O)C2CCCCC2)c2ccccn2)CC1 [WAY100,635, reference compound]
effect on male rat sexual behavior ([2]; WAY100,635 (0.3 mg/kg) in combination with paroxetine (5 mg/kg), own data, compared with DU125530 + paroxetine): comparable inhibition
behavioral effects on sexual behavior, antagonist alone ([2]; WAY100,635 alone at doses up to 1 mg/kg, IP): no behavioral effects on sexual behavior

C=CCc1ccccc1OCC(O)CNC(C)C (centres unmarked) [Alprenolol]
Potential average increase in time to first ejaculation (%) [1]: 75%

O=C1c2ccccc2S(=O)(=O)N1CCCCN1CCN(c2cc(Cl)cc3c2OCCO3)CC1 [DU125530, 2-[4-[4-(7-chloro-2,3-dihydro-1,4-benzodi-oxin-5-yl)-1-piperazinyl]butyl]-1,2-benzisothiazol-3(2H)-one-1,1-dioxide]
behavioral effects on sexual behavior, antagonist alone ([2]; DU125530 alone at doses up to 20 mg/kg): no behavioral effects on sexual behavior
effect on male rat sexual behavior ([2]; acute DU125530 20 mg/kg in combination with acute paroxetine 5 mg/kg, intraperitoneally 30 min before testing): strongly inhibited male rat sexual behavior
effects when administered alone ([2]; administered alone): no effects
pharmacological activity when combined with paroxetine ([2]; combined with paroxetine): pharmacologically active
safety ([2]; rat, in vivo): safe
Potential average increase in time to first ejaculation (%) [1]: 254%
5-HT1A-receptor occupancy ([3]; 10 to 40-mg daily dose range, 2 h post the last dose, dose-dependent): 0-72%
side effects ([3]; 10 to 40-mg daily dose range): minor side effects
tolerability ([3]; 10 to 40-mg daily dose range): well tolerated
correlation of occupancy with plasma levels [3]: correlated highly
5-HT1A receptor antagonistic activities in vitro and in vivo ([4]; Mos et al. 1997): selective 5-HT1A receptor antagonistic activities
biological activity given on itself ([4]; given on itself, Joordens et al. 1997): without biological activity
5-HT1A receptor antagonistic activity in several animal models ([4]; several animal models): nice and reliable 5-HT1A receptor antagonistic activity

CC(C)NCC(O)COc1cccc2ccccc12 (centres unmarked) [Propranolol]
Potential average increase in time to first ejaculation (%) [1]: 87%

OC(CNCC(O)C1CCc2cc(F)ccc2O1)C1CCc2cc(F)ccc2O1 (centres unmarked) [Nebiovolol]
Potential average increase in time to first ejaculation (%) [1]: 95%

CC(C)NCC(O)COc1cccc2[nH]ccc12 (centres unmarked) [Pindolol]
Potential average increase in time to first ejaculation (%) [1]: 46%
